According to patent US8173682B2, “Substituted pyridones as inhibitors of poly(ADP-ribose) polymerase (PARP)” (Aventis Pharmaceuticals Inc., priority 2004, dated 2012):
Where a name gives a salt, the structure may show the parent alone. Read-outs that look alike come from different tables or passages of the source.

Target: recombinantly expressed human PARP-1 enzyme (Homo sapiens, UniProt P09874)
Test: PARP enzyme assay, Method B (tritium-labeled NAD incorporation)
Format: biochemical
Protocol: Method B: PARP Enzyme Assay:
The IC50 is determined in this method by incubating the substances to be tested with the DNA-activated, recombinantly expressed and purified PARP-1 enzyme. Specifically, various concentrations of the test substance are incubated in 50 μL of reaction solution, which contains 50 mM Tris, 5 mM MgCl2, 1 mM DTT, 200 μM NAD, 0.1 m Ci/mL tritium-labeled NAD, 0.1 mg/mL DNA, 0.1 mg/mL histones, 2 μg/mL recombinantly expressed human PARP-1 enzyme, pH=8.0, at room temperature for 1 hour. The reaction is stopped by adding 150 μL of 20% trichloroacetic acid, and the radiolabeled protein constituents are precipitated. After incubation on ice for 10 minutes, the labeled, insoluble constituents are separated off through a glass fiber filter and, after washing with 20% trichloroacetic acid three times, the radioactivity incorporated by the PARP-1 enzyme is measured by radioluminescence. Consideration of the incorporation rates determined in this way as a function of the concentration of the test substance results in IC50 as the concentration of the test substance which reduces the incorporation rate to half the maximum value attainable (incubation without inhibitor).
The IC50 (fifty percent inhibitory concentration of the test substance in a solution—expressed at micromolar (μM) concentration) measured in accordance with these procedures for the compounds of this invention are summarized in Table 1.

[1] = Method B, 200 μM NAD, room temperature 1 hour, pH 8.0, read-out: IC50 (μM)/Method B

recombinantly expressed human PARP-1 enzyme, sequence (P09874 whole entry): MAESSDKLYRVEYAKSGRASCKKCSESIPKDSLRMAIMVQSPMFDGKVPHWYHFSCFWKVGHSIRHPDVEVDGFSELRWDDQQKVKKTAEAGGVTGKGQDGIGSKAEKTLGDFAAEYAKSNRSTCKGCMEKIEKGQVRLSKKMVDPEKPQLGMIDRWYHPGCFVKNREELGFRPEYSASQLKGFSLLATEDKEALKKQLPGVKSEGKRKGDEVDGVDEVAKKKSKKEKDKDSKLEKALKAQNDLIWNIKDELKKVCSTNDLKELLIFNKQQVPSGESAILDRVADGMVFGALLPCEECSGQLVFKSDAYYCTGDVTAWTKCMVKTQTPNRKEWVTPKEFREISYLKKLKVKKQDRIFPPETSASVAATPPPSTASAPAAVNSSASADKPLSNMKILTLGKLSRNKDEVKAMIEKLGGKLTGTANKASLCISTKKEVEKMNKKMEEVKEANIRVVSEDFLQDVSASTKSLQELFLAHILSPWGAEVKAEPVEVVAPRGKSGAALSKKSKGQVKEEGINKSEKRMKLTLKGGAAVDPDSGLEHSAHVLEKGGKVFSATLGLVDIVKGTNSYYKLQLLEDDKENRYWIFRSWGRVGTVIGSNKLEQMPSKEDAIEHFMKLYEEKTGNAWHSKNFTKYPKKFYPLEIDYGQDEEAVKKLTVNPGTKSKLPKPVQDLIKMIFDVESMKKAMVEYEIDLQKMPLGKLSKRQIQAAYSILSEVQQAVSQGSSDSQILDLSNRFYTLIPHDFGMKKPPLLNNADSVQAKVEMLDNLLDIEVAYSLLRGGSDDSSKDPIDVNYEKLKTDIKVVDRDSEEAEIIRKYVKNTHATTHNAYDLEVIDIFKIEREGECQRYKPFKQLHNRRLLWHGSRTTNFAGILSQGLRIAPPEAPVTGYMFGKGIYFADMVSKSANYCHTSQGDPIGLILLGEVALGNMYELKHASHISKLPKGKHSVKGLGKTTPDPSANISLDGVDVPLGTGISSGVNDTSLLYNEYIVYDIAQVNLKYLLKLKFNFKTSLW

Structure (SMILES) | IC50 [1] [µM] | IC50 [µM]
CCc1cc(-c2cccc(C(=O)N3CCCC3)n2)c(C)[nH]c1=O [Example 207, 5′-Ethyl-2′-methyl-6-(pyrrolidine-1-carbonyl)-1′H-[2,3′]bipyridinyl-6′-one] | 4.72 | 
CCc1cc(-c2ccc(C(C)O)o2)c(C)[nH]c1=O (centres unmarked) [Example 268, 3-Ethyl-5-[5-(1-hydroxy-ethyl)-furan-2-yl]-6-methyl-1H-pyridin-2-one] | 1.8 | 
CCc1cc(-c2cncc(C(=O)Nc3ccc(C(C)=O)cc3)c2)c(C)[nH]c1=O [Example 246, 5′-Ethyl-2′-methyl-6′-oxo-1′,6′-dihydro-[3,3′]bipyridinyl-5-carboxylic acid (4-acetyl-phenyl)-amide] | 0.64 | 
CCc1cc(-c2ccc(CNC(=O)CN3CCCC3)s2)c(C)[nH]c1=O [Example 276, N-[5-(5-Ethyl-2-methyl-6-oxo-1,6-dihydropyridin-3-yl)-thiophen-2-ylmethyl]-2-pyrrolidin-1-yl-acetamide] | 0.8 | 
CCc1cc(-c2ccc(S(=O)(=O)N3CCN(c4ncccn4)CC3)s2)c(C)[nH]c1=O [Example 117, 3-Ethyl-6-methyl-5-[5-(4-pyrimidin-2-yl-piperazine-1-sulfonyl)thiophen-2-yl]-1H-pyridin-2-one hydrochloride] | 25.5 | 
CCc1cc(-c2cc(C(=O)NCCc3ccncc3)ccn2)c(C)[nH]c1=O [Example 218, 5′-Ethyl-2′-methyl-6′-oxo-1′,6′-dihydro-[2,3′]bipyridinyl-4-carboxylic acid (2-pyridin-4-yl-ethyl)-amide] | 0.58 | 
CCc1cc(-c2cncc(C(=O)Nc3cc(C(C)(C)C)on3)c2)c(C)[nH]c1=O [Example 259, 5′-Ethyl-2′-methyl-6′-oxo-1′,6′-dihydro-[3,3′]bipyridinyl-5-carboxylic acid (5-tert-butyl-isoxazol-3-yl)-amide] | 0.73 | 
CCc1cc(-c2cncc(C(=O)Nc3ccccc3CC(N)=O)c2)c(C)[nH]c1=O [Example 251, 5′-Ethyl-2′-methyl-6′-oxo-1′,6′-dihydro-[3,3′]bipyridinyl-5-carboxylic acid (2-carbamoylmethyl-phenyl)-amide] | 0.1 | 
CCc1cc(-c2cccc(CNCc3ccccn3)n2)c(C)[nH]c1=O [Example 182H, 5′-Ethyl-2′-methyl-6-{[(pyridin-2-ylmethyl)-amino]-methyl}-1′H-[2,3′]bipyridinyl-6′-one] | 1.11 | 
CCc1cc(-c2ccc(CNC(=O)c3cccc(N(C)C)c3)o2)c(C)[nH]c1=O [Example 275, 3-Dimethylamino-N-[5-(5-ethyl-2-methyl-6-oxo-1,6-dihydro-pyridin-3-yl)-furan-2-ylmethyl]-benzamide] | 1.26 | 
CCc1cc(-c2cncc(C(=O)NCC(=O)c3ccc(OC)cc3)c2)c(C)[nH]c1=O [Example 256, 5′-Ethyl-2′-methyl-6′-oxo-1′,6′-dihydro-[3,3′]bipyridinyl-5-carboxylic acid [2-(4-methoxy-phenyl)-2-oxo-ethyl]-amide] | 0.45 | 
CCc1cc(-c2cncc(C(=O)N(C)CC(N)=O)c2)c(C)[nH]c1=O [Example 233, 5′-Ethyl-2′-methyl-6′-oxo-1′,6′-dihydro-[3,3′]bipyridinyl-5-carboxylic acid carbamoylmethyl-methyl-amide] | 1.65 | 
CCc1cc(-c2cccc(CN3CCN(C(C)=O)CC3)n2)c(C)[nH]c1=O [Example 182J, 6-(4-Acetyl-piperazin-1-ylmethyl)-5′-ethyl-2′-methyl-1′H-[2,3′]bipyridinyl-6′-one] | 14.6 | 
CCc1cc(-c2cccc(CN3CCCC3)n2)c(C)[nH]c1=O [Example 182G, 5′-Ethyl-2′-methyl-6-pyrrolidin-1-ylmethyl-1′H-[2,3′]bipyridinyl-6′-one] | 3.33 | 
CCc1cc(-c2cc(C(=O)NCCN3CCOCC3)ccn2)c(C)[nH]c1=O [Example 217, 5′-Ethyl-2′-methyl-6′-oxo-1′,6′-dihydro-[2,3′]bipyridinyl-4-carboxylic acid (2-morpholin-4-yl-ethyl)-amide] | 2.87 | 
CCc1cc(-c2cncc(C(=O)NCCOC)c2)c(C)[nH]c1=O [Example 261, 5′-Ethyl-2′-methyl-6′-oxo-1′,6′-dihydro-[3,3′]bipyridinyl-5-carboxylic acid (2-methoxy-ethyl)-amide] | 2.07 | 
CCc1cc(-c2ccc(CNCc3ccccc3OC(F)(F)F)o2)c(C)[nH]c1=O [Example 182E, 3-Ethyl-6-methyl-5-{5-[(2-trifluoromethoxy-benzylamino)-methyl]-furan-2-yl}-1H-pyridin-2-one] | 1.49 | 
CCc1cc(-c2ccc(S(=O)(=O)NC(C)c3ccccn3)s2)c(C)[nH]c1=O (centres unmarked) [Example 43, 5-(5-Ethyl-2-methyl-6-oxo-1,6-dihydropyridin-3-yl)thiophene-2-sulfonic acid 1-(pyridin-2-yl)ethylamide hydrochloride] | 0.21 | 

Structure (SMILES) | IC50 [1] [µM] | IC50 [µM]
CCc1cc(-c2ccc(S(=O)(=O)NCc3ccc(OC)cc3)s2)c(C)[nH]c1=O [Example 122B, 5-(5-Ethyl-2-methyl-6-oxo-1,6-dihydro-pyridin-3-yl)-thiophene-2-sulfonic acid 4-methoxy-benzylamide] | 0.13 | 
CCc1cc(-c2cncc(C(=O)NC(CC)c3ccc(C)nc3)c2)c(C)[nH]c1=O (centres unmarked) [Example 224, 5′-Ethyl-2′-methyl-6′-oxo-1′,6′-dihydro-[3,3′]bipyridinyl-5-carboxylic acid [1-(6-methyl-pyridin-3-yl)-propyl]-amide] | 5.9 | 
CCc1cc(-c2cncc(C(=O)NCC3CC(c4ccncc4)=NO3)c2)c(C)[nH]c1=O (centres unmarked) [Example 257, 5′-Ethyl-2′-methyl-6′-oxo-1′,6′-dihydro-[3,3′]bipyridinyl-5-carboxylic acid (3-pyridin-4-yl-4,5-dihydro-isoxazol-5-ylmethyl)-amide] | 0.57 | 
CCCCNC(=O)c1ccnc(-c2cc(CC)c(=O)[nH]c2C)c1 [Example 215, 5′-Ethyl-2′-methyl-6′-oxo-1′,6′-dihydro-[2,3′]bipyridinyl-4-carboxylic acid butylamide] | 1.25 | 
CCc1cc(-c2ccc(CN(Cc3ccccc3)Cc3cccnc3)o2)c(C)[nH]c1=O [Example 182A, 5-{5-[(Benzyl-pyridin-3-ylmethyl-amino)-methyl]-furan-2-yl}-3-ethyl-6-methyl-1H-pyridin-2-one] | 17.4 | 
CCc1cc(-c2cncc(C(=O)NCC(N)=O)c2)c(C)[nH]c1=O [Example 225, 5′-Ethyl-2′-methyl-6′-oxo-1′,6′-dihydro-[3,3′]bipyridinyl-5-carboxylic acid carbamoylmethyl-amide] | 5.5 | 
CCc1cc(-c2cncc(C(=O)NCc3ccccn3)c2)c(C)[nH]c1=O [Example 221, 5′-Ethyl-2′-methyl-6′-oxo-1′,6′-dihydro-[3,3′]bipyridinyl-5-carboxylic acid (pyridin-2-ylmethyl)-amide] | 2.04 | 
CCc1cc(-c2cncc(C(=O)N3CCC(=O)CC3)c2)c(C)[nH]c1=O [Example 234, 5-Ethyl-2-methyl-5′-(4-oxo-piperidine-1-carbonyl)-1H-[3,3′]bipyridinyl-6-one] |  | 2.46
CCc1cc(-c2ccc(CNCc3ccccc3)o2)c(C)[nH]c1=O [Example 123, 5-[5-(Benzylamino-methyl)-furan-2-yl]-3-ethyl-6-methyl-1H-pyridin-2-one hydrochloride] | 0.58 | 
CCc1cc(-c2cncc(C(=O)NCCc3ccccn3)c2)c(C)[nH]c1=O [Example 264, 5′-Ethyl-2′-methyl-6′-oxo-1′,6′-dihydro-[3,3′]bipyridinyl-5-carboxylic acid (2-pyridin-2-yl-ethyl)-amide] | 3.14 | 
CCc1cc(-c2cc(C(=O)N3CCCC3)ccn2)c(C)[nH]c1=O [Example 214, 5′-Ethyl-2′-methyl-4-(pyrrolidine-1-carbonyl)-1′H-[2,3′]bipyridinyl-6′-one] | 1.4 | 
CCc1cc(-c2ccc(CNCc3ccc(NC(C)=O)cc3)o2)c(C)[nH]c1=O [Example 182B, N-[4-({[5-(5-Ethyl-2-methyl-6-oxo-1,6-dihydro-pyridin-3-yl)-furan-2-ylmethyl]-amino}-methyl)-phenyl]-acetamide] | 0.29 | 
CCc1cc(-c2ccc(C(=O)N3CCC(O)C3)cn2)c(C)[nH]c1=O (centres unmarked) [Example 210, 5′-Ethyl-5-(3-hydroxy-pyrrolidine-1-carbonyl)-2′-methyl-1′H-[2,3′]bipyridinyl-6′-one] | 12.1 | 
CCc1cc(-c2cccc(CN3CCC(O)CC3)n2)c(C)[nH]c1=O [Example 182I, 5′-Ethyl-6-(4-hydroxy-piperidin-1-ylmethyl)-2′-methyl-1′H-[2,3′]bipyridinyl-6′-one] | 8.61 | 
CCc1cc(-c2cncc(C(=O)N3CCN(C(=O)C4CC4)CC3)c2)c(C)[nH]c1=O [Example 252, 5′-(4-Cyclopropanecarbonyl-piperazine-1-carbonyl)-5-ethyl-2-methyl-1H-[3,3′]bipyridinyl-6-one] | 6.1 | 
CCc1cc(-c2cc(C(=O)NCCc3ccc([N+](=O)[O-])cc3)ccn2)c(C)[nH]c1=O [Example 213, 5′-Ethyl-2′-methyl-6′-oxo-1′,6′-dihydro-[2,3′]bipyridinyl-4-carboxylic acid [2-(4-nitro-phenyl)-ethyl]-amide] | 0.21 | 
CCc1cc(-c2ccc(CN3CCCC3)o2)c(C)[nH]c1=O [Example 181] | 0.49 | 
